Data set [1] relates to E. coli ATCC 25922. Nature of the data set: microbe, parasite or virus in culture. Particulars: reference strain. It counts as cell-based, Escherichia coli. The protocol: (§1) The antimicrobial activity of the synthesized compounds was evaluated against four reference bacterial strains: Staphylococcus aureus (ATCC 29213), Enterococcus faecalis (ATCC 29212), Escherichia coli (ATCC 25922), and Pseudomonas aeruginosa (ATCC 27853), which are commonly used for determining antibacterial activity. In addition, two clinical strains, S. aureus (MRSA) and E. faecium (VRE), were included in the study. The bacterial strains were inoculated from Selectrol discs (Biomaxima SA, Lublin, Poland) onto blood agar (Graso Biotech, Starogard Gdański, Poland) and incubated at 37 °C for 24 h. Before testing, the strains were cultured aerobically on blood agar at 37 °C for 24 h.
(§2) The susceptibility of microorganisms to the synthesized compounds was determined using the broth microdilution assay, following the guidelines outlined by CLSI [30]. The final concentrations of the tested compounds in Mueller–Hinton broth, in 96-well plates (VWR International Sp. z o.o., Gdańsk, Poland), ranged from 0.125 to 256 mg/L. To prepare the bacterial suspension, bacteria from the overnight culture on blood agar were diluted in sterile 0.9% NaCl to achieve a turbidity equivalent to a 0.5 McFarland standard. The adjusted inoculum suspension was further diluted in Mueller–Hinton broth so that after inoculation, each well contained approximately 5 × 10^5 CFU/mL. Aliquots (5 µL) of bacterial suspension were added to each solution. The sterility control (containing the broth) and the growth control (containing the reference strain in broth without the tested compound) were also set up. The antibiotics vancomycin and gentamicin were used as a control. The plates were incubated at 37 °C under aerobic conditions. The results are expressed as the MIC of the tested compounds, which was defined as the lowest concentration at which no visible growth of bacteria (no turbidity) was observed. The assay was performed in triplicate.

The test system of data set [2] is E. faecalis ATCC 29212. The data set can be described thus: microbe, parasite or virus in culture. Conditions: reference strain; for MIC: read-out: MIC E. faecalis ATCC 29212. Format: cell-based, Enterococcus faecalis. The protocol: as §1, §2
Data set [3] has as its system S. aureus ATCC 29213. The data set can be described thus: microbe, parasite or virus in culture. It counts as cell-based, Staphylococcus aureus. Conditions: reference strain; for MIC: read-out: MIC S. aureus ATCC 29213. As to the method: as §1, §2
Data set [4] concerns S. aureus MRSA (clinical isolate no 203). The data set can be described thus: microbe, parasite or virus in culture. Format: cell-based, Staphylococcus aureus. Conditions: methicillin-resistant clinical isolate no 203; read-out: MIC S. aureus MRSA. As to the method: as §1, §2
The subject of data set [5] is normal human fibroblasts, BJ line (CRL-2522). The data set can be described thus: Neutral red cytotoxicity assay. Particulars: 24 h. As to the method:
Normal human fibroblasts, BJ line (CRL-2522™), Eagle’s Minimum Essential Medium (EMEM), and fetal bovine serum (FBS) were obtained from ATCC (Manassas, VA, USA). Cells were grown following ATCC guidelines in an EMEM medium supplemented with 10% FBS at 37 °C in a humidified atmosphere of 95% air and 5% CO2 in a HeraCell 150 incubator (Heraeus, Hanau, Germany).
The assay was performed as per previously published protocols with slight modifications. In brief, BJ cells were plated in 96-well tissue culture plates (Nest Scientific Biotechnology, Wuxi, China) at a density of 6 × 10^3 cells per well and allowed to attach for 24 h in EMEM supplemented with 10% FBS. After the incubation period, the medium was removed, and 10% dimethyl sulfoxide (DMSO)-treated cells (Sigma-Aldrich, St. Louis, MO, USA) were used as a positive control, while nontreated cells served as a negative control.
The cells were treated with peptides suspended in EMEM medium supplemented with 10% FBS and incubated for 24 h at 37 °C in a humidified atmosphere of 95% air and 5% CO2. After the incubation, the supernatants were discarded and replaced with 100 µL of non-supplemented EMEM containing 0.33% neutral red (Sigma-Aldrich) diluted 1:40. The cells were incubated for an additional 2 h at 37 °C. Following incubation, the neutral red medium was removed, and the cells were washed with 100 µL of phosphate-buffered saline (PBS) per well.
To extract the dye into the solution, the cells were treated with 150 µL of a solution containing 50% ethanol (Alchem, Torun, Poland), 49% distilled H2O, and 1% acetic acid (Alchem, Torun, Poland) and incubated under shaking at 37 °C for 10 min. Absorbance was measured at 540 nm using a Synergy H1 plate reader (BioTek Instruments, Winooski, VT, USA). The assay was performed in triplicate to ensure reproducibility.

A short description of data set [6]: PAMPA-BBB assay. Particulars: 20 h incubation; for R, mass retention: mean ± SEM; for Papp at 20 h, 20 µM: pig, PAMPA, pH 7.4, Pe, effective permeability coefficient, pH 7.4, mean ± SEM. From the text:
This assay utilized a 96-well plate assembly consisting of a filter plate pre-coated with polar brain lipids (donor plate) and a receiver plate (acceptor plate). The phospholipid mixture used to coat the membrane was extracted from porcine polar brain lipids, with the following composition: 12.6% phosphatidylcholine, 33.1% phosphatidylethanolamine, 18.5% phosphatidylserine, 4.1% phosphatidylinositol, 0.8% phosphatidic acid, and 30.9% of other compounds, including cerebrosides, sulfatides, and pigments.
In each well of the donor filtration plate (Multiscreen Filter Plate, PVDF with a pore size of 0.45 µm), 5 µL of the phospholipid mixture in n-dodecane (20 mg/mL) was carefully applied to form the artificial membrane. After coating, 200 µL of phosphate-buffered saline (PBS at pH 7.4) containing 5% dimethyl sulfoxide (DMSO) as a co-solvent, and the test compound (at a concentration of 20 µM) was added to each well of the donor plate (in triplicate). […] The plate lid was then replaced and the resulting assembled donor–acceptor plates were incubated at room temperature for 20 h. After this time, the donor plate was removed and solutions from each well of both acceptor and donor plates were collected for further analysis. The concentrations of the tested compounds were determined by LC-MS. The analysis was conducted by UHPLC-MS system (Shimadzu Nexera X2 with LCMS-2020 detector) using a ReproSil Pure 120 ODS-3 column (Dr. Maisch GmbH, 100 × 2 mm, 2.4 µm particle size) with several gradients of ACN with 0.1% FA and 0.05% TFA at a flow rate of 0.3 mL/min. The eluted solution was monitored by an ESI-MS detector operated in a selected ion monitoring mode (SIM). […] CE=CD×VD+CA×VA/VD+VA
Background: The PAMPA barrier holds no transporters, so it reflects passive diffusion.

In data set [7] the test system is E. faecium VRE (clinical isolate UCK 7979384). The data set can be described thus: microbe, parasite or virus in culture. Format: cell-based. Particulars: vancomycin-resistant clinical isolate UCK 7979384; read-out: MIC E. faecium VRE. As to the method:
as §1, §2

A word on the Papp: it is a coefficient for how fast a substance crosses the barrier. A lower Papp goes with poor permeation.

Values after ≈ are worked out from the molar mass of the structure shown. Where only a bound is given, the exact number is not on record here.

For the molecule `CC[C@H](C)[C@H](NC(=O)[C@H](CCCCN)NC(=O)[C@H](CCCCN)NC(=O)[C@H](C)NC(=O)[C@H](CC(C)C)NC(=O)[C@H](C)NC(=O)[C@H](C)NC(=O)[C@H](CC(C)C)NC(=O)[C@H](C)NC(=O)[C@H](CCCCN)NC(=O)[C@H](CC(C)C)NC(=O)[C@H](CC(N)=O)NC(=O)[C@@H](NC(=O)[C@H](CCCCN)NC(=O)CNC(=O)[C@H](CC(C)C)NC(=O)[C@H](CC(C)C)NC(=O)[C@H](Cc1ccc(O)cc1)NC(=O)CNC(=O)[C@H](C)N)[C@@H](C)CC)C(=O)N[C@@H](CC(C)C)C(N)=O` [compound 1, TP10], the MIC in data set [1] is given as 14.7 µM (≈ 32.1 µg/mL); in data set [2] it was 29.3 µM (≈ 63.9 µg/mL); in data set [3], 14.7 µM (≈ 32.1 µg/mL); in data set [4] it was 3.67 µM (≈ 8.01 µg/mL).
As to `CN[C@H](CC(C)C)C(=O)N[C@H]1C(=O)N[C@@H](CC(N)=O)C(=O)N[C@H]2C(=O)N[C@H]3C(=O)N[C@H](C(=O)N[C@H](C(=O)NCCOCCOCCOCCn4cc(C(=O)N[C@@H](Cc5ccc(O)cc5)C(=O)N[C@@H](C)C(=O)N[C@@H](CCCNC(=N)N)C(=O)N[C@@H](C)C(=O)N[C@@H](C)C(=O)N[C@@H](C)C(=O)N[C@@H](CCCNC(=N)N)C(=O)N[C@@H](CCC(N)=O)C(=O)N[C@@H](C)C(=O)N[C@@H](CCCNC(=N)N)C(=O)N[C@@H](C)C(N)=O)nn4)c4cc(O)cc(O)c4-c4cc3ccc4O)[C@H](O)c3ccc(c(Cl)c3)Oc3cc2cc(c3O[C@@H]2O[C@H](CO)[C@@H](O)[C@H](O)[C@H]2O[C@H]2C[C@](C)(N)[C@H](O)[C@H](C)O2)Oc2ccc(cc2Cl)[C@H]1O` [compound 10], the “concentration above which cytotoxicity was shown” value in data set [5] is listed as “above 16 µg/mL”. Besides, in data set [6], the “R, mass retention” value worked out at 2.0 ± 0.6% and the Papp at 20 h, 20 µM turned out to be 0.01 ± 0.003 ×10⁻⁶ cm/s.
In the case of `CN[C@H](CC(C)C)C(=O)N[C@H]1C(=O)N[C@@H](CC(N)=O)C(=O)N[C@H]2C(=O)N[C@H]3C(=O)N[C@H](C(=O)N[C@H](C(=O)O)c4cc(O)cc(O)c4-c4cc3ccc4O)[C@H](O)c3ccc(c(Cl)c3)Oc3cc2cc(c3O[C@@H]2O[C@H](CO)[C@@H](O)[C@H](O)[C@H]2O[C@H]2C[C@](C)(NC(=O)CCOCCOCCOCCOCCn3cc(C(=O)N[C@@H](Cc4ccc(O)cc4)C(=O)N[C@@H](C)C(=O)N[C@@H](CCCNC(=N)N)C(=O)N[C@@H](C)C(=O)N[C@@H](C)C(=O)N[C@@H](C)C(=O)N[C@@H](CCCNC(=N)N)C(=O)N[C@@H](CCC(N)=O)C(=O)N[C@@H](C)C(=O)N[C@@H](CCCNC(=N)N)C(=O)N[C@@H](C)C(N)=O)nn3)[C@H](O)[C@H](C)O2)Oc2ccc(cc2Cl)[C@H]1O` [compound 11], in data set [5], the “concentration above which cytotoxicity was shown” value was greater than 64 µg/mL. Besides, in data set [6], the “R, mass retention” value was 32.7 ± 0.9% and the Papp at 20 h, 20 µM was 0.066 ± 0.007 ×10⁻⁶ cm/s.
`CN[C@H](CC(C)C)C(=O)N[C@H]1C(=O)N[C@@H](CC(N)=O)C(=O)N[C@H]2C(=O)N[C@H]3C(=O)N[C@H](C(=O)N[C@H](C(=O)NCCSSCCn4cc(C(=O)N[C@@H](Cc5ccc(O)cc5)C(=O)N[C@@H](C)C(=O)N[C@@H](CCCNC(=N)N)C(=O)N[C@@H](C)C(=O)N[C@@H](C)C(=O)N[C@@H](C)C(=O)N[C@@H](CCCNC(=N)N)C(=O)N[C@@H](CCC(N)=O)C(=O)N[C@@H](C)C(=O)N[C@@H](CCCNC(=N)N)C(=O)N[C@@H](C)C(N)=O)nn4)c4cc(O)cc(O)c4-c4cc3ccc4O)[C@H](O)c3ccc(c(Cl)c3)Oc3cc2cc(c3O[C@@H]2O[C@H](CO)[C@@H](O)[C@H](O)[C@H]2O[C@H]2C[C@](C)(N)[C@H](O)[C@H](C)O2)Oc2ccc(cc2Cl)[C@H]1O` [compound 12]: the “effect on cell viability” value in data set [5] (across the tested concentration range) is on record as “did not significantly affect cell viability”. Besides, in data set [6], the “R, mass retention” value is on record as 12.7 ± 2.2% and the Papp at 20 h, 20 µM came out at 0.036 ± 0.004 ×10⁻⁶ cm/s.
In the case of `C#CC(=O)N[C@@H](CCCNC(=N)N)C(=O)N[C@@H](CCCNC(=N)N)C(=O)N[C@@H](CCCNC(=N)N)C(=O)N[C@@H](CCCNC(=N)N)C(=O)N[C@@H](CCCNC(=N)N)C(=O)N[C@@H](CCCNC(=N)N)C(=O)N[C@@H](CCCNC(=N)N)C(=O)N[C@@H](CCCNC(=N)N)C(=O)N[C@@H](CCCNC(=N)N)C(N)=O` [compound 14], the MIC in data set [7] is recorded as 21.7 µM (≈ 32 µg/mL); in data set [1], 43 µM (≈ 63.4 µg/mL); in data set [2], 87 µM (≈ 128 µg/mL); in data set [3] it was 21.7 µM (≈ 32 µg/mL); in data set [4] it was 2.71 µM (≈ 4 µg/mL). Besides, the “R, mass retention” value in data set [6] came to 8.0 ± 1.2%.
Turning to `CN[C@H](CC(C)C)C(=O)N[C@H]1C(=O)N[C@@H](CC(N)=O)C(=O)N[C@H]2C(=O)N[C@H]3C(=O)N[C@H](C(=O)N[C@H](C(=O)NCCSSCCn4cc(C(=O)N[C@@H](CCCNC(=N)N)C(=O)N[C@@H](CCCNC(=N)N)C(=O)N[C@@H](CCCNC(=N)N)C(=O)N[C@@H](CCCNC(=N)N)C(=O)N[C@@H](CCCNC(=N)N)C(=O)N[C@@H](CCCNC(=N)N)C(=O)N[C@@H](CCCNC(=N)N)C(=O)N[C@@H](CCCNC(=N)N)C(=O)N[C@@H](CCCNC(=N)N)C(N)=O)nn4)c4cc(O)cc(O)c4-c4cc3ccc4O)[C@H](O)c3ccc(c(Cl)c3)Oc3cc2cc(c3O[C@@H]2O[C@H](CO)[C@@H](O)[C@H](O)[C@H]2O[C@H]2C[C@](C)(N)[C@H](O)[C@H](C)O2)Oc2ccc(cc2Cl)[C@H]1O` [compound 17], in data set [1], the MIC is on record as greater than 83 µM and the “MIC E. coli ATCC 25922” value was greater than 256 µg/mL. Also, in data set [2], the “MIC E. faecalis ATCC 29212” value was 8 µg/mL (≈ 2.59 µM) and the MIC is 2.59 µM (≈ 7.99 µg/mL). Also, the “R, mass retention” value in data set [6] worked out at 20.7 ± 0.3%. For the same molecule, in data set [3], the “MIC S. aureus ATCC 29213” value is recorded as 4 µg/mL (≈ 1.3 µM) and the MIC stood at 1.30 µM (≈ 4.01 µg/mL).
